Reference: patent publication US10456407B2, “Combination therapy for treating cancer” (Epizyme, Inc., priority 2015, dated 2019)

Tested on: SU-DHL10 cells
Assay: RT2 Glucocorticoid signaling PCR array, SU-DHL10 (SUDHL10) cell line (Table 4d)
Assay type: cell-based
Conditions: SUDHL10, 4 days, vs DMSO

CCN(c1cc(-c2ccc(CN3CCOCC3)cc2)cc(C(=O)NCc2c(C)cc(C)[nH]c2=O)c1C)C1CCOCC1 [Compound 44]
AFF1 ΔΔCT: 0.650
AMPD3 ΔΔCT: −0.556
ANGPTL4 ΔΔCT: 0.615
ANXA4 ΔΔCT: −2.475
BCL6 ΔΔCT: 0.640
CEBPB ΔΔCT: 3.019
CREB1 ΔΔCT: −0.051
CREB3L4 ΔΔCT: 0.806
CREB3 ΔΔCT: 0.421
CYB561 ΔΔCT: −2.399
DUSP1 ΔΔCT: 1.099
EHD3 ΔΔCT: −0.855
FK8PS ΔΔCT: 0.042
FOSL2 ΔΔCT: −0.063
GDPD1 ΔΔCT: −1.405
HNRPLL ΔΔCT: 0.071
KLF9 ΔΔCT: −1.127
KLF13 ΔΔCT: −1.636
NFKBIA ΔΔCT: 0.602
PDCD7 ΔΔCT: 0.802
PDP1 ΔΔCT: 0.016
PER1 ΔΔCT: 0.780
PIK3R1 ΔΔCT: 0.831
PLEKHF1 ΔΔCT: 0.469
POU2F1 ΔΔCT: 0.006
POU2F2 ΔΔCT: 0.424
RA5A3 ΔΔCT: 0.385
RGS2 ΔΔCT: 0.072
RHOB ΔΔCT: −1.475
SESN1 ΔΔCT: −1.646
SGK1 ΔΔCT: 1.943
SLC10A6 ΔΔCT: −0.648
SLC19A2 ΔΔCT: −1.413
SLC22A5 ΔΔCT: −1.733
SNTA1 ΔΔCT: 0.531
SPSB1 ΔΔCT: −0.444
STAT5A ΔΔCT: 0.384
TBL1XR1 ΔΔCT: 0.234
TNFAIP3 ΔΔCT: 0.124
TSC22D3 ΔΔCT: 2.709
USP2 ΔΔCT: 0.070
USPS4 ΔΔCT: −0.064
VLDLR ΔΔCT: 4.246
ZFP36 ΔΔCT: 0.215
ZHX3 ΔΔCT: −1.169
ZNF281 ΔΔCT: −0.437

C[C@]12C=CC(=O)C=C1CC[C@@H]1[C@@H]2[C@@H](O)C[C@@]2(C)[C@H]1CC[C@]2(O)C(=O)CO [Prednisolone, prednisolone]
AFF1 ΔΔCT: −0.106
AMPD3 ΔΔCT: −0.327
ANGPTL4 ΔΔCT: −0.105
ANXA4 ΔΔCT: −0.001
ATF4 ΔΔCT: 1.570
BCL6 ΔΔCT: 1.067
CEBPB ΔΔCT: 2.427
CREB1 ΔΔCT: 0.028
CREB3L4 ΔΔCT: 1.120
CREB3 ΔΔCT: −0.098
CYB561 ΔΔCT: 0.164
DUSP1 ΔΔCT: −0.719
EHD3 ΔΔCT: −0.272
FK8PS ΔΔCT: −1.599
FOSL2 ΔΔCT: −1.511
GDPD1 ΔΔCT: −0.938
GOT1 ΔΔCT: 0.781
HNRPLL ΔΔCT: 0.492
KLF9 ΔΔCT: −1.904
KLF13 ΔΔCT: −2.191
MT2A ΔΔCT: 1.837
NFKBIA ΔΔCT: 0.069
PDCD7 ΔΔCT: 0.428
PDP1 ΔΔCT: 0.512
PER1 ΔΔCT: −0.675
PIK3R1 ΔΔCT: −0.040
PLEKHF1 ΔΔCT: −0.326
POU2F1 ΔΔCT: −0.060
POU2F2 ΔΔCT: −2.104
RA5A3 ΔΔCT: 0.050
RGS2 ΔΔCT: 1.368
RHOB ΔΔCT: 0.157
SESN1 ΔΔCT: −3.413
SGK1 ΔΔCT: 0.975
SLC10A6 ΔΔCT: −1.545
SLC19A2 ΔΔCT: 1.693
SLC22A5 ΔΔCT: 1.923
SNTA1 ΔΔCT: −0.066
SPSB1 ΔΔCT: −0.629
STAT5A ΔΔCT: 0.381
TBL1XR1 ΔΔCT: 0.105
TNFAIP3 ΔΔCT: 0.950
TSC22D3 ΔΔCT: −1.509
USP2 ΔΔCT: −0.292
USPS4 ΔΔCT: 0.041
VLDLR ΔΔCT: 4.597
ZFP36 ΔΔCT: −0.420
ZHX3 ΔΔCT: 0.027
ZNF281 ΔΔCT: −0.465
